Assays:
Assay type in all cases: in vivo
Piemarker [1] = assay: Herbicidal activity test for indoor pre-emergence soil treatment; parameters: key: level 1-9; higher = more weed remaining vs blank control; settings: 150 g a.i./ha, visual inspection 21 days after treatment
How it was run: (§1)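 Pre-emergence soil spray per NY/T 1155.3-2006: weed seeds sown in moistened neutral sandy loam (organic content ≤2%), covered with 0.5–2.0 cm soil, then sprayed 24 h later with a water-diluted 10% emulsifiable concentrate at 150 g(a.i.)/ha. Visual rating after 21 days on a 1–9 scale.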

Barnyard grass [2] = assay: as above; parameters: key: level 1-9; higher = more weed remaining vs blank control; settings: 150 g a.i./ha, visual inspection 21 days after treatment
How it was run: as §1

green bristlegrass [3] = assay: as above; parameters: key: level 1-9; higher = more weed remaining vs blank control; settings: 150 g a.i./ha, visual inspection 21 days after treatment
How it was run: as §1

Broadleaf weed = assay: Post-emergence herbicidal activity test in a paddy field; parameters: key: level scale; higher level = more weed left vs blank control; settings: 150 g a.i./ha (penoxsulam control 250 g(a.i.)/h)
How it was run: (§2)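 Efficacy was visually estimated 15 and 30 days after spraying, grading weed coverage relative to an untreated neighbouring plot (level 2 = 0 to 2.5%, level 9 = 67.6 to 100%). Treatments were 150 g(a.i.)/ha from 10% emulsifiable concentrates applied at the 4-5 leaf rice stage, four repeats of 50 m^2 each.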

Cyperaceae = assay: as above; parameters: key: level scale; higher level = more weed left vs blank control; settings: 150 g a.i./ha (penoxsulam control 250 g(a.i.)/h)
How it was run: as §2

Gramineae = assay: as above; parameters: key: level scale; higher level = more weed left vs blank control; settings: 150 g a.i./ha (penoxsulam control 250 g(a.i.)/h)
How it was run: as §2

Amaranthus retroflexus [4] = assay: Field test for weed control in a corn field; settings: 150 g a.i./ha, 30 days after treatment
How it was run: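 Post-emergence control of Amaranthus retroflexus was assessed in corn plots using the GB/T 17980.42-2000 method. Emulsifiable concentrates (10%) in water were applied by spraying at the 2- to 5-leaf crop stage on 20 m^2 plots, four replicates each, alongside a mesotrione 25% oil dispersion reference. Herbicidal activity was scored on 1-9 levels by weed amount relative to blank control areas.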

Chenopodium album = assay: Field test for weed control in a corn field; settings: 150 g a.i./ha, after treatment
How it was run: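 Field weed-control testing in corn, run per GB/T 17980.42-2000, scored Chenopodium album on a 1-9 level scale, where each level matches a percentage range of weed remaining relative to the blank control area. Sprays of 10% emulsifiable concentrates in water delivered 150 g(a.i.)/ha at the corn 2-leaf to 5-leaf stage on 20 m^2 plots, four replicates each. Mesotrione 25% oil dispersion served as reference.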

Digitaria sanguinalis [5] = assay: Field test for weed control in a corn field; settings: 150 g a.i./ha, after treatment
How it was run: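 Field trial in a corn field following GB/T 17980.42-2000. Test compounds were formulated as 10% emulsifiable concentrates, diluted in water and sprayed post-emergence at 150 g(a.i.)/ha when corn had 2 to 5 leaves, with 4 replicates on 20 m^2 plots. Control of Digitaria sanguinalis was scored on a 1-9 scale based on weed damage relative to the untreated blank area.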

Convolvulus arvensis = assay: Field test for weed control in a corn field; settings: 150 g a.i./ha, after treatment
How it was run: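 Post-emergence herbicidal activity on Convolvulus arvensis was scored in a corn field on a 1-9 scale, based on symptoms and damage severity. Each level corresponds to the weed remaining as a percentage of the blank control area. Sprays of 10% emulsifiable concentrate at 150 g(a.i.)/ha went on at the corn 2–5 leaf stage, with four replicates of 20 m^2 per treatment.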

Barnyard grass [6] = assay: Field test for weed control in a corn field; settings: 150 g a.i./ha, 30 days after treatment
How it was run: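 Herbicidal activity against barnyard grass was assessed in corn field plots of 20 m^2, with four replicates per treatment. Compounds were applied as water-diluted 10% emulsifiable concentrates at 150 g(a.i.)/ha at the 2-5 leaf corn stage, with 25% mesotrione oil dispersion as the reference agent. Damage was scored on a 1-9 scale against untreated blank plots.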

Acalypha australis = assay: Field test for weed control in a corn field; settings: 150 g a.i./ha, after treatment
How it was run: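 Herbicidal activity against weeds was assessed in corn plots by the GB/T 17980.42-2000 method. Corn at the 2–5 leaf stage received water sprays of 10% emulsifiable concentrates at 150 g(a.i.)/ha, four repeats per treatment over 20 m^2. A 25% mesotrione oil dispersion was the reference. Damage symptoms and severity were rated on levels 1-9 relative to weeds in the blank control area.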

nutgrass flatsedge = assay: Field test for weed control in a corn field; settings: 150 g a.i./ha, after treatment
How it was run: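 Herbicidal effect on nutgrass flatsedge was measured in a field planted with corn, using the GB/T 17980.42-2000 method. Emulsifiable concentrates (10%) in water were sprayed at 150 g(a.i.)/ha during the 2-leaf to 5-leaf corn stage, on 20 m^2 plots repeated 4 times. 25% mesotrione oil dispersion was the control agent. Activity was scored from 1 to 9 by weed remaining relative to blank control plots.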

green bristlegrass [7] = assay: Field test for weed control in a corn field; settings: 150 g a.i./ha, after treatment
How it was run: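 Herbicidal activity against green bristlegrass was assessed in corn field plots of 20 m^2 per GB/T 17980.42-2000. Test agents, formulated as 10% emulsifiable concentrates, were applied in water at 150 g(a.i.)/ha at the corn 2 leaves to 5 leaves stage, repeated 4 times. A 25% mesotrione oil dispersion served as the control agent, and weed damage was rated on levels 1-9.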

Solanum nigrum = assay: Field test for weed control in a corn field; settings: 150 g a.i./ha, 30 days after treatment
How it was run: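 In a corn field trial based on GB/T 17980.42-2000, 10% emulsifiable concentrates diluted in water were sprayed at 150 g(a.i.)/ha at the 2 to 5 leaf stage of corn. Each treatment used 20 m^2 plots and was repeated 4 times, with 25% mesotrione oil dispersion as the reference agent. Solanum nigrum damage was scored on a 1-9 scale against blank control plots.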

Portulaca oleracea = assay: Field test for weed control in a corn field; settings: 150 g a.i./ha, after treatment
How it was run: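 Post-emergence weed control was evaluated in a corn field by the GB/T 17980.42-2000 method. Emulsifiable concentrates (10%) in water were applied as sprays at 150 g(a.i.)/ha at the 2-5 leaf corn stage, in four replicate 20 m^2 plots. A 25% mesotrione oil dispersion served as control agent. Effects were graded 1-9 relative to weed remaining in blank control areas.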

goosegrass = assay: Field test for weed control in a corn field; settings: 150 g a.i./ha, after treatment
How it was run: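 In this field trial in corn, run per GB/T 17980.42-2000, test agents prepared as 10% emulsifiable concentrates were applied in water as sprays at 150 g(a.i.)/ha at the 2- to 5-leaf corn stage. Each treatment covered 20 m^2 and was repeated 4 times. Goosegrass control was scored 1-9 relative to weed remaining in blank control areas.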

Humulus scandens [8] = assay: Herbicidal activity test for indoor pre-emergence soil treatment; settings: 150 g a.i./ha, visual inspection 21 days after treatment
How it was run: as §1

Amaranthus retroflexus [9] = assay: as above; parameters: key: 1-9 levels; higher = more weed remaining vs blank control; settings: 150 g a.i./ha, visual inspection 21 days after treatment
How it was run: as §1

Digitaria sanguinalis [10] = assay: as above; parameters: key: 1-9 levels; higher = more weed remaining vs blank control; settings: 150 g a.i./ha, visual inspection 21 days after treatment
How it was run: as §1

Amaranthus retroflexus [11] = assay: Herbicidal activity test for indoor post-emergence spraying on stems and leaves; parameters: key: grade level by weed remaining vs blank control, e.g. 5 = 10.1-15%; settings: 150 g a.i./ha, visual inspection 21 days after treatment
How it was run: (§3)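 Following national standard NY/T 1155.4-2006, seedlings raised in a greenhouse receive stem-and-leaf spraying after emergence; 21 days on, surviving weed is compared by eye with the blank control area and assigned a graded level (e.g., level 6 = 15.1–25%).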

Piemarker [12] = assay: as above; parameters: key: grade level by weed remaining vs blank control, e.g. 5 = 10.1-15%; settings: 150 g a.i./ha, visual inspection 21 days after treatment
How it was run: as §3

Digitaria sanguinalis [13] = assay: as above; parameters: key: grade level by weed remaining vs blank control, e.g. 5 = 10.1-15%; settings: 150 g a.i./ha, visual inspection 21 days after treatment
How it was run: as §3

Barnyard grass [14] = assay: as above; parameters: key: grade level by weed remaining vs blank control, e.g. 5 = 10.1-15%; settings: 150 g a.i./ha, visual inspection 21 days after treatment
How it was run: as §3

Humulus scandens [15] = assay: as above; parameters: key: grade level by weed remaining vs blank control, e.g. 5 = 10.1-15%; settings: 150 g a.i./ha, visual inspection 21 days after treatment
How it was run: as §3

green bristlegrass [16] = assay: as above; parameters: key: grade level by weed remaining vs blank control, e.g. 5 = 10.1-15%; settings: 150 g a.i./ha, visual inspection 21 days after treatment
How it was run: as §3

## Cc1cccc(C(=O)NCc2cccc(F)c2)c1 [Compound B01]
Piemarker [1]
  Herbicidal Activity Piemarker: 2 (equivalent to 0 to 2.5% of the weed in the blank control area)
Barnyard grass [2]
  Herbicidal Activity Barnyard grass: 2 (equivalent to 0 to 2.5% of the weed in the blank control area)
Green bristlegrass [3]
  Herbicidal Activity Green bristlegrass: 1
Broadleaf weed; 15 days after treatment
  Herbicidal activity 15 days after treatment Broadleaf weed: 1
Broadleaf weed; 30 days after treatment
  Herbicidal activity 30 days after treatment Broadleaf weed: 2 (equivalent to 0 to 2.5% of the weed in the blank control area)
Cyperaceae; 15 days after treatment
  Herbicidal activity 15 days after treatment Cyperaceae: 2 (equivalent to 0 to 2.5% of the weed in the blank control area)
Cyperaceae; 30 days after treatment
  Herbicidal activity 30 days after treatment Cyperaceae: 2 (equivalent to 0 to 2.5% of the weed in the blank control area)
Gramineae; 15 days after treatment
  Herbicidal activity 15 days after treatment Gramineae: 2 (equivalent to 0 to 2.5% of the weed in the blank control area)
Gramineae; 30 days after treatment
  Herbicidal activity 30 days after treatment Gramineae: 2 (equivalent to 0 to 2.5% of the weed in the blank control area)
Amaranthus retroflexus [4]
  Post-emergence weed control effect, Amaranthus retroflexus: 1
Chenopodium album
  Post-emergence weed control effect, Chenopodium album: 1
Digitaria sanguinalis [5]
  Post-emergence weed control effect, Digitaria sanguinalis: 1
Convolvulus arvensis
  Post-emergence weed control effect, Convolvulus arvensis: 2 (equivalent to 0 to 2.5% of the weed in the blank control area)
Barnyard grass [6]
  Post-emergence weed control effect, Barnyard grass: 1
Acalypha australis
  Post-emergence weed control effect, Acalypha australis: 2 (equivalent to 0 to 2.5% of the weed in the blank control area)
Nutgrass flatsedge
  Post-emergence weed control effect, Nutgrass flatsedge: 2 (equivalent to 0 to 2.5% of the weed in the blank control area)
Green bristlegrass [7]
  Post-emergence weed control effect, Green bristlegrass: 1
Solanum nigrum
  Post-emergence weed control effect, Solanum nigrum: 2 (equivalent to 0 to 2.5% of the weed in the blank control area)
Portulaca oleracea
  Post-emergence weed control effect, Portulaca oleracea: 1
goosegrass
  Post-emergence weed control effect, Goose grass: 1
Humulus scandens [8]
  Herbicidal Activity Humulus scandens: 2 (equivalent to 0 to 2.5% of the weed in the blank control area)
Amaranthus retroflexus [9]
  Herbicidal Activity Amaranthus retroflexus: 1
Digitaria sanguinalis [10]
  Herbicidal Activity Digitaria sanguinalis: 1
Amaranthus retroflexus [11]
  Herbicidal Activity Amaranthus retroflexus: 1
Piemarker [12]
  Herbicidal Activity Piemarker: 1
Digitaria sanguinalis [13]
  Herbicidal Activity Digitaria sanguinalis: 1
Barnyard grass [14]
  Herbicidal Activity Barnyard grass: 2 (equivalent to 0 to 2.5% of the weed in the blank control area)
Humulus scandens [15]
  Herbicidal Activity Humulus scandens: 1
Green bristlegrass [16]
  Herbicidal Activity Green bristlegrass: 1
